# Results as given in patent publication US6743917B2, “Camptothecin analogs and methods of preparation thereof” (University of Pittsburgh, priority 1993, dated 2004).
# Like-named read-outs stand apart in the source and are kept apart here.
# Tests used:
# [1] = Kinetics of lactone ring opening in PBS buffer (HPLC); assay type: physicochemical; settings: for % Lactone at Equilibrium: PBS
# [2] = tested on: MDA-MB-435 tumorigenic metastatic human breast cancer cells; assay: cells; assay type: cell-based; settings: Homo sapiens, MDA-MB-435 cells, 72 hrs exposure
# Protocol: Cells. […] The cells were exposed to a range of drug concentrations for 72 hr exposure periods and then viability was assessed using a sulphorrhodamine B (SRB) assay. SRB assays were performed using a standard assay.
# Sulphorhodamine B (SRB) assay was used. This assay measures the total protein levels in the living cells. Proteins from dead cells are lysed and removed in the washing step before TCA fixation. However, it is possible that cells in the early stage of death still have their membrane integrity and therefore retain the protein contents inside. As a result, the optical density at 490 nm can sometimes be overestimated and the cytotoxicity underestimated. […] The SRB assay is now a well regarded assay and was recently approved by NCI as a standard assay for anticancer drug screening.
# [3] = tested on: glioma cells (U87, A172, SG388, T98G, LN-Z308); assay: Inhibition of cell proliferation in glioma cell lines; assay type: cell-based; settings: several lines of glioma cells (U87, A172, SG388, T98G, LN-Z308), read-out: median effective concentrations, inhibiting cell proliferation
# in vitro = settings: human
# [4] = Equilibrium binding to DMPC small unilamellar vesicles (fluorescence anisotropy titration); settings: for KDMPC overall association constant: PBS buffer at PH 7.4 and 37° C.
# [5] = Equilibrium binding to DMPG small unilamellar vesicles (fluorescence anisotropy titration); settings: for KDMPG overall association constant: PBS buffer at PH 7.4 and 37° C.
# [6] = Kinetics of lactone ring opening in RBC (HPLC); assay type: in vitro ADME, human; settings: RBC
# Description: Kinetics of Lactone Ring Opening. […] Mi and Burke (1994), supra. […] Louis, Mo.) was used.
# [7] = Blood levels of DB-67 after intrastomach dosing; assay type: in vivo; settings: 5 mg/kg intrastomach injection in DMSO; samples at 30 min, 1 hr, 2 hr, 4 hr
# Protocol: To evaluate the blood levels achieved following dosing at 5 mg/kg, four animals were given 0.1 ml intrastomach injections of DB-67 dissolved in DMSO. The stock contained DB67 at a concentration of 1.6 mg/ml. At time points of 30 min, 1 hr, 2 hr, and 4 hr, 1 ml samples of blood were drawn and collected by heart puncturing. The samples were centrifuged for 3 min and stored frozen until analysis was carried out.
# [8] = Self-association in aqueous solution (fluorescence intensity with time); assay type: physicochemical; settings: lactone drug forms added to solution, time=0
# Protocol: FIG. 22 summarizes the dependence of the fluorescence intensity of DB172 as a function of time and pH. In these experiments DB172 is added to solution as the lactone form. At low pH where the drug remains in the lactone form, the change in intensity with time is the lowest. At pH 10, where the conditions are such that the lactone more readily hydrolyzes and forms carboxylate, a significant change in fluorescence intensity is observed. It appears that a pH 10 nonfluorescent micellular aggregates composed of lactone disassemble and form open-ring carboxylate forms that tend to exist in solution as monomeric fluorescent species.
# FIG. 23 explores the fluorescence intensity of DB172 as a function of concentration. Following the addition of low concentration of lactone drug to solution, the change in fluorescence signal is the greatest whereas at high drug concentration (10 ^μM) the fluorescence intensity changes are minimal. It is believed that a low concentration the micellular aggregates of DB172 displaying reduced fluorescence can disassemble and form fluorescent carboxylate species, but at higher drug concentration the equilibrium favors that the agent remains in the aggregated or reduced fluorescence state. […] Once again this decrease in fluorescence that occurs at reduced pH appear to be due to the formation of lactone aggregates of reduced fluorescence quantum yield.
# FIGS. 21 through 24 are consistent with the unusual ability of DB172 lactone to self-associate and form micelles at micromolar drug concentrations. The micellular DB172 aggregates display a reduced fluorescence. If conditions allow for hydrolysis to occur such that carboxylate forms, there is an increase in the fluorescence intensity of the sample. FIG. 25 compares the relative change in the fluorescence emission of a sample following addition of lactone drug forms to solution. In these experiments the values for each drug are normalized to a value of 1 at time equals to zero, and the ability of the various analogs to disassociate in the event the drugs are aggregated at time=0 is monitored with time. […]
# [9] = Kinetics of lactone ring opening in whole human blood (HPLC); settings: Whole Blood, physiological temperature;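 also: hydrolytic opening of the camptothecin lactone ring followed over time by quantitative C18 reversed-phase HPLC in human whole blood at physiological temperature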
# [10] = Kinetics of lactone ring opening in PBS containing HSA (HPLC); settings: HSA (PBS containing 30 mg/ml HSA)
# [11] = absence of HSA, read-out: IC50 (w/o HSA)
smiles,measurement,setting,value
"CC[C@@]1(O)C(=O)OCc2c1cc1n(c2=O)Cc2c-1nc1ccc(O)cc1c2CC[Si](C)(C)C [DB-174, (20S)-10-Hydroxy-7-[(2-trimethylsilyl)ethyl]camptothecin]",% Lactone at Equilibrium,[1],13.7 +/− 0.7%
same,half-life,"[1]; buffer, pH 7.4",29.7 min
same,IC50,[2]; [11],12 nM
same,EC50,[3],0.01 to 0.1 µg/mL
same,half-life,in vitro; blood,40.3 min
same,KDMPC overall association constant,[4],9000 M⁻¹
same,"K value for DMPC, fold greater than camptothecin",[4]; relative to camptothecin,~90 fold
same,KDMPG overall association constant,[5],6600 M⁻¹
"CC[C@@]1(O)C(=O)OCc2c1cc1n(c2=O)Cc2c-1nc1ccc(O)cc1c2[Si](C)(C)C(C)(C)C [DB-67, (20S)10-Hydroxy-7-tert-butyldimethylsilylcamptothecin]",% Lactone at Equilibrium,[1],10.2 +/− 0.3%
same,% Lactone at Equilibrium,[6],41.4 +/− 0.7%
same,t1/2,[6],51.4 ± 0.5 min
same,IC50,[2]; [11],7 nM
same,IC50,"[2]; presence of 1 mg/ml HSA, read-out: IC50 (w/HSA)",22 nM
same,DB67 levels in blood after oral dosage,[7],> 40 ng/mL
same,self-association / aggregation state in solution,[8],much more likely to be found in solution as monomeric drug relative to DB172
same,half-life,in vitro; whole blood,130 min
same,% Lactone at Equilibrium,[9],30%
same,t1/2,[9],133.0 ± 15.9 min
same,% Lactone at Equilibrium,[9]; listed as DB 67,30.5 +/− 1.9%
same,% Lactone at Equilibrium,[10],10.5 +/− 2.0%
same,t1/2,[10],119.0 ± 5.3 min
same,KDMPC overall association constant,[4],2700 M⁻¹
same,"K value for DMPC, fold greater than camptothecin",[4]; relative to camptothecin,27 fold
same,times more lipophilic than camptothecin,[4]; relative to camptothecin,25 times
same,KDMPG overall association constant,[5],2800 M⁻¹
same,"K value for DMPG, fold greater than camptothecin",[5]; relative to camptothecin,28 fold
